Consider 20 molecules from ChEMBL document CHEMBL6092126, “Inhibitors of Rickettsia prowazekii methionine aminopeptidase 1 identified from the Pandemic Response Box” (Bioorg Med Chem Lett, 2024).

pIC50: −log10 of the molar value. Some results are limits rather than exact numbers.

Test [1] in a line: Inhibition of Rickettsia prowazekii methionine aminopeptidase 1 using methionine-aminomethylcoumarin as substrate at 10 uM preincubated for 1 hrs followed by substrate addition and measured after 30 mins by fluorescence based plate reader analysis relative to control. Particulars: time 1.5 hrs.
The nature of test [2]: Inhibition of Rickettsia prowazekii methionine aminopeptidase 1 using methionine-aminomethylcoumarin as substrate preincubated for 1 hrs followed by substrate addition and measured after 30 mins by fluorescence based plate reader analysis.

In test [1], `O=c1cc(Nc2ccc3ccccc3c2)[nH]c(=O)[nH]1` showed an inhibition above 60%. Moreover, the negative logarithm of the IC50 (pIC50) in test [2] is 5.74.
On the same counts, the results for `O=C(O)c1ccc(-n2nc(-c3ccccc3O)nc2-c2ccccc2O)cc1` [DEFERASIROX] are above 60% and 5.68.
The like results for `O=C(CP(=O)(O)O)NCCc1cccc(Oc2ccccc2)c1` were, in that order, above 60% and 5.15.
On the same counts, the results for `CCCCCCC1c2ccc(O)cc2Oc2cc(O)ccc21` are above 60% and 5.00.
As to `CN(C)CCCNC(=O)c1ccc(-c2cc(O)c3ncccc3c2)cc1`, the inhibition in test [1] was above 60%. This molecule also had a pIC50 in test [2] of 6.47.
The molecule `C[C@@H](c1nc(-c2ccc(C#N)cc2)cs1)[C@](O)(Cn1cncn1)c1ccc(F)cc1F` [RAVUCONAZOLE] had an inhibition in test [1] above 60%. Further, the pIC50 in test [2] was 5.28.
The like results for `COc1cc(Cc2cnc(N)nc2N)cc(OC)c1OC` [TRIMETHOPRIM] were, in that order, above 60% and 5.29.
On to `O=C(O)c1ccc(-c2ccccc2Cl)o1`, for which the pIC50 in test [2] was 5.62.
In turn, `Cc1ccc(Oc2ccccc2-c2csc(N=C3NCCCN3)n2)c(C)c1` [ABAFUNGIN] returned an inhibition in test [1] above 60%. The same molecule gave a negative-log IC50 (pIC50) in test [2] of 5.27.
The like results for `COc1ccc(C)cc1NC(=O)c1ccc(S(=O)(=O)N2CCCCC2)cc1` were, in that order, above 60% and 5.62.
Take `O=[N+]([O-])/C(Br)=C/c1ccc(Br)o1`: in test [1], the inhibition was above 60%. For the same molecule, in test [2], the pIC50 was 5.54.
Molecule `CN(O)C(=O)c1cc2c(CN3CCC[C@H]3C(N)=O)cn(Cc3ccc(F)cc3)c2cn1` displayed an inhibition in test [1] above 60%. In test [2], this molecule had a negative-log IC50 (pIC50) of 5.38.
On the same counts, the results for `Cc1cc(-c2ccccc2)c(C(=O)C(=O)Nc2ccc(N3CCN(c4ncc(F)cn4)CC3)cc2)n1C` [OLOROFIM] are above 60% and 5.38.
In the case of `O=C(NCc1ccc(F)cc1)c1c(O)c2ncccc2[nH]c1=O`, the inhibition in test [1] is above 60%. In test [2], this molecule had a negative logarithm of the IC50 (pIC50) of 5.72.
The like results for `Oc1cccc(C(Nc2nccs2)c2ccc3cccnc3c2O)c1` (centres undefined) were, in that order, above 60% and 5.85.
Consider `Fc1ccc(-n2cc(Cn3c(-c4cccc(F)c4)nc4ccccc43)nn2)cc1`, for which the inhibition in test [1] is above 60%. In addition, in test [2], the pIC50 was 5.39.
`Nc1nc(=O)[nH]cc1F` [FLUCYTOSINE]: the inhibition in test [1] was above 60%. Moreover, the pIC50 in test [2] is 5.16.
Take `CONC(=N)c1ccc(-c2ccc(-c3ccc(C(=N)NOC)cc3)o2)cc1` [PAFURAMIDINE]: in test [1], the inhibition is above 60%. For the same molecule, the negative logarithm of the IC50 (pIC50) in test [2] is 5.54.
The molecule `O=C(Nc1nnc(-c2ccc(Cl)cc2)o1)c1nc2ccccc2s1` showed an inhibition in test [1] above 60%. Besides, the pIC50 in test [2] is 5.26.
Take `O=C1c2cccc3cccc(c23)C(=O)N1CC1CO1` (centres undefined): the inhibition in test [1] was above 60%. The molecule also gave a pIC50 in test [2] of 5.32.
